This is an account of results in patent US9586956B2, “Isoquinoline and naphthyridine derivatives” (Genentech, Inc., priority 2012, dated 2017).

T1 sequence (O95819 25-289 limits assumed): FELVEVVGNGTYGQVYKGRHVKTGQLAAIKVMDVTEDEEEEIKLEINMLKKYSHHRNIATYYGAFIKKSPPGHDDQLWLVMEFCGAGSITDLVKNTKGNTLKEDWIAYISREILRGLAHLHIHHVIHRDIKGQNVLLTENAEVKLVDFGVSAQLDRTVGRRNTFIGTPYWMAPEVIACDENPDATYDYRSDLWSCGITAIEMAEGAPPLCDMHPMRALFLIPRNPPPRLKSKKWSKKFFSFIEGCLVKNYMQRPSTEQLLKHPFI

This experiment addresses T1, purified human MAP4K4 kinase domain (Homo sapiens, UniProt O95819).
T1 construct: purified human MAP4K4 kinase domain
Description: MAP4K4 Inhibition Assay Protocol No. 1 (Caliper LabChip, moesin-derived peptide phosphorylation). In kind it is biochemical. As to conditions: Assay 1; 1 nM enzyme, 10 uM ATP, 45 min. On the procedure:
The kinase activity of purified human MAP4K4 kinase domain was measured by monitoring the phosphorylation of a peptide substrate derived from moesin protein (Leu-Gly-Arg-Asp-Lys-Tyr-Lys-Thr-Leu-Arg-Gln-Ile-Arg-Gln) fluorescently labeled on the N-terminus with 5-carboxyfluorescein using the Caliper LabChip technology (Caliper Life Sciences, Hopkinton, Mass.). To determine inhibition constants (IC50), compounds were serially diluted in DMSO and added to 10 uL kinase reactions containing 1 nM purified MAP4K4 enzyme, 1 uM peptide substrate, 10 uM ATP, 10 mM MgCl2, 1 mM EGTA, 50 mM Hepes pH 7.2, 1 mM DTT, 0.01% Triton X-100, and 2% DMSO. Reactions were incubated at room temperature in Perkin Elmer Proxiplates for 45 minutes and stopped by the addition of 10 uL of an EDTA-containing solution (50 mM Hepes pH 7.2, 40 mM EDTA, 0.02% Triton X-100). The fraction of phosphorylated peptide was determined as a fraction of total peptide substrate using the Caliper Lab Chip 3000 according to the manufacturer's instructions. IC50 values were determined using the four-parameter non-linear fit model.
For the molecule “1-amino-7-(3-fluorophenyl)- N-(4-hydroxycyclohexyl) isoquinoline-4-carboxamide [Example 113]”, half-maximal inhibition (IC50) required 0.0565 µM.

Molecule “1-amino-N-[2-(3,5-dimethyl- pyrazol-1-yl)ethyl]-7- (3-fluorophenyl) isoquinoline-4-carboxamide [Example 79]” returned an IC50 of 1.4 µM.

`CN(C)C(=O)c1nc(CNC(=O)c2cnc(N)c3cc(-c4cccc(F)c4)ccc23)no1` [Example 1, 3-[[[1-amino-7-(3-fluorophenyl)isoquinoline-4-carbonyl]amino]methyl]-N,N-dimethyl-1,2,4-oxadiazole-5-carboxamide] registered an IC50 of 0.122 µM.

In turn, `Nc1ncc(-c2nc3ccccc3[nH]2)c2ccc(-c3cccc(F)c3)cc12` [Example 2, 4-(1H-benzimidazol-2-yl)-7-(3-fluorophenyl)isoquinolin-1-amine] registered an IC50 of 0.299 µM.

`Nc1ncc(C(=O)NC2CC(O)C2)c2ccc(-c3cccc(F)c3)cc12` (centres unmarked) [Example 3, 1-amino-7-(3-fluorophenyl)-N-(3-hydroxycyclobutyl)isoquinoline-4-carboxamide] yielded an IC50 of 0.0388 µM.

`N#Cc1cnc(N)c2cc(-c3cccc(F)c3)ccc12` [Example 4, 1-amino-7-(3-fluorophenyl)isoquinoline-4-carbonitrile] came in with an IC50 of 0.0221 µM.

Molecule `NCc1cnc(N)c2cc(-c3cccc(F)c3)ccc12` [Example 5, 4-(aminomethyl)-7-(3-fluorophenyl)isoquinolin-1-amine] displayed an IC50 of 1.2 µM.

On to `CC(=O)N1CC(NC(=O)c2cnc(N)c3cc(-c4cccc(F)c4)ccc23)C1` [Example 9, N-(1-acetylazetidin-3-yl)-1-amino-7-(3-fluorophenyl)isoquinoline-4-carboxamide], for which the IC50 turned out to be 0.0506 µM.

`Nc1ncc(C(=O)NC2CC2)c2ccc(-c3cccc(F)c3)nc12` [Example 13, 8-amino-N-cyclopropyl-2-(3-fluorophenyl)-1,7-naphthyridine-5-carboxamide] yielded a 50% inhibitory concentration (IC50) of 0.00129 µM.

`Nc1ncc(C(=O)NCCN2CCOCC2)c2ccc(-c3cccc(F)c3)cc12` [Example 45, 1-amino-7-(3-fluorophenyl)-N-(2-morpholinoethyl) isoquinoline-4-carboxamide] returned an IC50 of 0.0841 µM.

Consider `CN(C)CCNC(=O)c1cnc(N)c2cc(-c3cccc(F)c3)ccc12` [Example 46, 1-amino-N-[2-(dimethylamino)ethyl]-7-(3-fluorophenyl) isoquinoline-4-carboxamide], for which the half-maximal inhibitory concentration (IC50) is 2.4 µM.

In the case of `Nc1ncc(C(=O)NCCN2CCCC2)c2ccc(-c3cccc(F)c3)cc12` [Example 47, 1-amino-7-(3-fluorophenyl)-N-(2-pyrrolidin-1-ylethyl)isoquinoline-4-carboxamide], the IC50 was 1.6 µM.

Consider `CS(=O)(=O)N1CCN(C(=O)c2cnc(N)c3cc(-c4cccc(F)c4)ccc23)CC1` [Example 48, [1-amino-7-(3-fluorophenyl)-4-isoquinolyl]-(4-methylsulfonylpiperazin-1-yl)methanone], for which the IC50 came out at 4.2 µM.

Molecule `CC(=O)N1CCN(C(=O)c2cnc(N)c3cc(-c4cccc(F)c4)ccc23)CC1` [Example 49, 1-[4-[1-amino-7-(3-fluorophenyl)isoquinoline-4-carbonyl]piperazin-1-yl] ethanone] displayed an IC50 of 2.6 µM.

Molecule `NC(=O)C1CCN(C(=O)c2cnc(N)c3cc(-c4cccc(F)c4)ccc23)CC1` [Example 50, 1-[1-amino-7-(3-fluorophenyl)isoquinoline-4-carbonyl] piperidine-4-carboxamide] yielded an IC50 of 1.5 µM.

Regarding `NC(=O)C1CCCN(C(=O)c2cnc(N)c3cc(-c4cccc(F)c4)ccc23)C1` (centres unmarked) [Example 51, 1-[1-amino-7-(3-fluorophenyl)isoquinoline-4-carbonyl] piperidine-3-carboxamide], the IC50 is 2 µM.

Consider `CN(C)C(=O)CN1CCN(C(=O)c2cnc(N)c3cc(-c4cccc(F)c4)ccc23)CC1` [Example 52, 2-[4-[1-amino-7-(3-fluorophenyl)isoquinoline-4-carbonyl]piperazin-1-yl]-N,N-dimethyl-acetamide], for which half-maximal inhibition (IC50) required 1.5 µM.

As for `Nc1ncc(C(=O)NCCS(=O)(=O)N2CCCC2)c2ccc(-c3cccc(F)c3)cc12` [Example 53, 1-amino-7-(3-fluorophenyl)-N-(2-pyrrolidin-1-ylsulfonylethyl) isoquinoline-4-carboxamide], the IC50 was 0.388 µM.

For `COCc1ccc(NC(=O)c2cnc(N)c3cc(-c4cccc(F)c4)ccc23)cc1` [Example 54, 1-amino-7-(3-fluorophenyl)-N-[4-(methoxymethyl)phenyl]isoquinoline-4-carboxamide], the IC50 was 0.0175 µM.

For the molecule `Nc1ncc(C(=O)N2CCC(CO)CC2)c2ccc(-c3cccc(F)c3)cc12` [Example 55, [1-amino-7-(3-fluorophenyl)-4-isoquinolyl]-[4-(hydroxy-methyl)-1-piperidyl] methanone], the IC50 was found to be 0.622 µM.

Consider `Nc1ncc(C(=O)NCC2CCOCC2)c2ccc(-c3cccc(F)c3)cc12` [Example 56, 1-amino-7-(3-fluorophenyl)-N-(tetrahydropyran-4-ylmethyl)isoquinoline-4-carboxamide], for which the IC50 amounted to 0.249 µM.

Regarding `CC(=O)N1CCC(NC(=O)c2cnc(N)c3cc(-c4cccc(F)c4)ccc23)CC1` [Example 57, N-(1-acetyl-4-piperidyl)-1-amino-7-(3-fluorophenyl) isoquinoline-4-carboxamide], half-maximal inhibition (IC50) was put at 0.102 µM.

`Nc1ncc(C(=O)NCCN2CCCCC2=O)c2ccc(-c3cccc(F)c3)cc12` [Example 58, 1-amino-7-(3-fluorophenyl)-N-[2-(2-oxo-1-piperidyl)ethyl]isoquinoline-4-carboxamide] gave an IC50 of 0.146 µM.

As for `Nc1ncc(C(=O)NCC2CCOC2)c2ccc(-c3cccc(F)c3)cc12` (centres unmarked) [Example 59, 1-amino-7-(3-fluorophenyl)-N-(tetrahydrofuran-3-ylmethyl)isoquinoline-4-carboxamide], the midpoint of inhibition, the IC50, lay at 0.0999 µM.

`CNC(=O)C1CN(C(=O)c2cnc(N)c3cc(-c4cccc(F)c4)ccc23)CCO1` (centres unmarked) [Example 60, 4-[1-amino-7-(3-fluorophenyl)isoquinoline-4-carbonyl]-N-methyl-morpholine-2-carboxamide] yielded an IC50 of 0.238 µM.

`NC(=O)c1nc(CNC(=O)c2cnc(N)c3cc(-c4cccc(F)c4)ccc23)no1` [Example 61, 3-[[[1-amino-7-(3-fluorophenyl)isoquinoline-4-carbonyl]amino]methyl]-1,2,4-oxadiazole-5-carboxamide] gave a concentration for half-maximal inhibition (IC50) of 0.0368 µM.

As for `Nc1ncc(C(=O)Nc2ccccc2)c2ccc(-c3cccc(F)c3)cc12` [Example 62, 1-amino-7-(3-fluorophenyl)-N-phenyl-isoquinoline-4-carboxamide], 0.0338 µM corresponded to half-maximal inhibition (IC50).

`Nc1ncc(C(=O)Nc2ccc(CO)cc2)c2ccc(-c3cccc(F)c3)cc12` [Example 63, 1-amino-7-(3-fluorophenyl)-N-[4-(hydroxymethyl)phenyl]isoquinoline-4-carboxamide] displayed an IC50 of 0.0127 µM.

`Nc1ncc(C(=O)NCCCN2CCOCC2)c2ccc(-c3cccc(F)c3)cc12` [Example 64, 1-amino-7-(3-fluorophenyl)-N-(3-morpholinopropyl) isoquinoline-4-carboxamide] registered an IC50 of 0.34 µM.

With `Nc1ncc(C(=O)N2CCN(CCO)CC2)c2ccc(-c3cccc(F)c3)cc12` [Example 65, [1-amino-7-(3-fluorophenyl)-4-isoquinolyl]-[4-(2-hydroxyethyl)piperazin-1-yl]methanone], the IC50 worked out at 1.7 µM.

As to `NC(=O)c1cnc(N)c2cc(-c3cccc(F)c3)ccc12` [Example 66, 1-amino-7-(3-fluorophenyl) isoquinoline-4-carboxamide], the IC50 amounted to 0.0327 µM.

`CN1CCC(NC(=O)c2cnc(N)c3cc(-c4cccc(F)c4)ccc23)CC1` [Example 67, 1-amino-7-(3-fluorophenyl)-N-(1-methyl-4-piperidyl) isoquinoline-4-carboxamide] came in with an IC50 of 0.651 µM.

Molecule `Nc1ncc(C(=O)NC2CCOCC2)c2ccc(-c3cccc(F)c3)cc12` [Example 68, 1-amino-7-(3-fluorophenyl)-N-tetrahydropyran-4-yl-isoquinoline-4-carboxamide] had an IC50 of 0.12 µM.

As for `Nc1ncc(C(=O)NCCN2CCC(O)CC2)c2ccc(-c3cccc(F)c3)cc12` [Example 69, 1-amino-7-(3-fluorophenyl)-N-[2-(4-hydroxy-1-piperidyl)ethyl] isoquinoline-4-carboxamide], the half-inhibitory concentration (IC50) amounted to 0.35 µM.

`Nc1ncc(C(=O)NC2CCCC(O)C2)c2ccc(-c3cccc(F)c3)cc12` (centres unmarked) [Example 70, 1-amino-7-(3-fluorophenyl)-N-(3-hydroxycyclohexyl) isoquinoline-4-carboxamide] returned an IC50 of 0.0852 µM.

Consider `CNC(=O)c1cnc(N)c2cc(-c3cccc(F)c3)ccc12` [Example 74, 1-amino-7-(3-fluorophenyl)-N-methyl-isoquinoline-4-carboxamide], for which the IC50 was 0.0395 µM.

Take `COc1ccc(NC(=O)c2cnc(N)c3cc(-c4cccc(F)c4)ccc23)cc1` [Example 75, 1-amino-7-(3-fluorophenyl)-N-(4-methoxyphenyl) isoquinoline-4-carboxamide]: the IC50 turned out to be 0.0148 µM.

The molecule `Nc1ncc(C(=O)NCCN2CCS(=O)(=O)CC2)c2ccc(-c3cccc(F)c3)cc12` [Example 76, 1-amino-N-[2-(1,1-dioxo-1,4-thiazinan-4-yl)ethyl]-7-(3-fluorophenyl) isoquinoline-4-carboxamide] registered an IC50 of 0.245 µM.
